Measurements taken from patent US20170159101A1, “DRUG-RESISTANT P97 ATPASE MUTATIONS” (Cleave Biosciences, Inc., priority 2014, published 2017).

Experiments:
[1] = tested on: Hct116 resistant cell line clone #33 (p97 P472L); experiment: GI50 fold-change, resistant clone #33 vs parental; type: cell-based, human; details: Clone #33, Hct116, resistance generated with compound 4, C1415T / P472L; 72 hrs
Description: (§1) Dose titration of test compounds were conducted in Hct116, DLD-1, or LoVo cell lines. In brief, cells were plated in 384-well plates and a selected candidate drug compound was added in a 10-point 2-fold serial dilution.

[2] = tested on: Hct116 resistant cell line clone #2 (p97 V474A); experiment: GI50 fold-change, resistant clone #2 vs parental; type: cell-based, human; details: Clone #2, Hct116, resistance generated with compound 2, T1421C / V474A; 72 hrs
Description: as §1

[3] = tested on: Hct116 resistant cell line clone #6 (p97 A528T); experiment: GI50 fold-change, resistant clone #6 vs parental; type: cell-based, human; details: Clone #6, Hct116, resistance generated with compound 2, G1582 / A528T; 72 hrs
Description: as §1

[4] = tested on: Hct116 resistant cell line clone #207 (p97 V485D); experiment: GI50 fold-change, resistant clone #207 vs parental; type: cell-based, human; details: Clone #207, Hct116, resistance generated with compound 4, T1454A / V485D; 72 hrs
Description: as §1

[5] = tested on: Hct116 resistant cell line clone #11 (p97 E470D); details: Clone #11, Hct116, resistance generated with compound 3, G1410T / E470D; 72 hrs
[6] = tested on: DLD-1 resistant cell line clone #87 (p97 S541P); experiment: GI50 fold-change, resistant clone #87 vs parental; type: cell-based, human; details: Clone #87, DLD-1, resistance generated with compound 4, T1621T/C / S541P; 72 hrs
Description: as §1

[7] = tested on: Hct116 resistant cell line clone #27 (p97 T688A); experiment: GI50 fold-change, resistant clone #27 vs parental; type: cell-based, human; details: Clone #27, Hct116, resistance generated with compound 4, A2062G / T688A; 72 hrs
Description: as §1

[8] = tested on: LoVo resistant cell line clone #221 (p97 V474V/A); experiment: GI50 fold-change, resistant clone #221 vs parental; type: cell-based, human; details: Clone #221, LoVo, resistance generated with compound 4, T1421C/T / V474V/A; 72 hrs
Description: (§2) Dose titration of test compounds were conducted in Hct116, DLD-1, or LoVo cell lines. In brief, cells were plated in 384-well plates and a selected candidate drug compound was added in a 10-point 2-fold serial dilution. […] Hct116 cells were plated at 50,000 cells per 15 cm dish and treated with GI50-GI90 doses of test compound for 2-4 weeks until individual colonies of cells were visible on the plate.

[9] = tested on: Hct116 resistant cell line clone #25 (p97 P500T); experiment: GI50 fold-change, resistant clone #25 vs parental; type: cell-based, human; details: Clone #25, Hct116, resistance generated with compound 4, C1498A / P500T; 72 hrs
Description: as §1

[10] = tested on: Hct116 resistant cell line clone #42 (p97 P472A); experiment: GI50 fold-change, resistant clone #42 vs parental; type: cell-based, human; details: Clone #42, Hct116, resistance generated with compound 4, C1414G / P472A; 72 hrs
Description: as §1

[11] = tested on: Hct116 resistant cell line clone #117 (p97 L482I); experiment: GI50 fold-change, resistant clone #117 vs parental; type: cell-based, human; details: Clone #117, Hct116, resistance generated with compound 4, C1444A / L482I; 72 hrs
Description: as §1

[12] = tested on: Hct116 resistant cell line clone #137 (p97 T475I); experiment: GI50 fold-change, resistant clone #137 vs parental; type: cell-based, human; details: Clone #137, Hct116, resistance generated with compound 4, C1424T / T475I; 72 hrs
Description: as §1

[13] = tested on: DLD-1 resistant cell line clone #58 (p97 D649D/N); experiment: GI50 fold-change, resistant clone #58 vs parental; type: cell-based, human; details: Clone #58, DLD-1, resistance generated with compound 4, G1945G/A / D649D/N; 72 hrs
Description: as §1

[14] = tested on: Hct116 resistant cell line clone #7 (p97 A659T); details: Clone #7, Hct116, resistance generated with compound 3, G1975A / A659T; 72 hrs
[15] = tested on: Hct116 resistant cell line clone #90 (p97 Q473P); experiment: GI50 fold-change, resistant clone #90 vs parental; type: cell-based, human; details: Clone #90, Hct116, resistance generated with compound 4, A1418C / Q473P; 72 hrs
Description: as §1

[16] = tested on: DLD-1 resistant cell line clone #83 (p97 N660N/D); experiment: GI50 fold-change, resistant clone #83 vs parental; type: cell-based, human; details: Clone #83, DLD-1, resistance generated with compound 4, A1978G/A / N660N/D; 72 hrs
Description: as §1

[17] = tested on: Hct116 resistant cell line clone #3 (p97 G481A); details: Clone #3, Hct116, resistance generated with compound 2, G1442C / G481A; 72 hrs
[18] = tested on: DLD-1 resistant cell line clone #61 (p97 I620I/L); experiment: GI50 fold-change, resistant clone #61 vs parental; type: cell-based, human; details: Clone #61, DLD-1, resistance generated with compound 4, T1859T/C / I620I/L; 72 hrs
Description: as §1

[19] = tested on: Hct116 resistant cell line clone #45 (p97 F539I); experiment: GI50 fold-change, resistant clone #45 vs parental; type: cell-based, human; details: Clone #45, Hct116, resistance generated with compound 4, T1615A / F539I; 72 hrs
Description: as §1

[20] = tested on: Hct116 resistant cell line clone #108 (p97 P646T); experiment: GI50 fold-change, resistant clone #108 vs parental; type: cell-based, human; details: Clone #108, Hct116, resistance generated with compound 4, C1936A / P646T; 72 hrs
Description: as §2

[21] = tested on: Hct116 resistant cell line clone #152 (p97 T688I); experiment: GI50 fold-change, resistant clone #152 vs parental; type: cell-based, human; details: Clone #152, Hct116, resistance generated with compound 4, C2063T / T688I; 72 hrs
Description: as §2

[22] = tested on: DLD-1 resistant cell line clone #82 (p97 A569A/T); experiment: GI50 fold-change, resistant clone #82 vs parental; type: cell-based, human; details: Clone #82, DLD-1, resistance generated with compound 4, G1705G/A / A569A/T; 72 hrs
Description: as §1

[23] = tested on: Hct116 resistant cell line clone #47 (p97 E498D); experiment: GI50 fold-change, resistant clone #47 vs parental; type: cell-based, human; details: Clone #47, Hct116, resistance generated with compound 4, G1494T / E498D; 72 hrs
Description: as §1

Compound | Fold Change in GI50 Compared to Parental Cell Line [1] [fold] | Fold Change in GI50 Compared to Parental Cell Line [2] [fold] | Fold Change in GI50 Compared to Parental Cell Line [3] [fold] | Fold Change in GI50 Compared to Parental Cell Line [4] [fold] | Fold Change in GI50 Compared to Parental Cell Line [5] [fold] | Fold Change in GI50 Compared to Parental Cell Line [6] [fold] | Fold Change in GI50 Compared to Parental Cell Line [7] [fold] | Fold Change in GI50 Compared to Parental Cell Line [8] [fold] | Fold Change in GI50 Compared to Parental Cell Line [9] [fold] | Fold Change in GI50 Compared to Parental Cell Line [10] [fold] | Fold Change in GI50 Compared to Parental Cell Line [11] [fold] | Fold Change in GI50 Compared to Parental Cell Line [12] [fold] | Fold Change in GI50 Compared to Parental Cell Line [13] [fold] | Fold Change in GI50 Compared to Parental Cell Line [14] [fold] | Fold Change in GI50 Compared to Parental Cell Line [15] [fold] | Fold Change in GI50 Compared to Parental Cell Line [16] [fold] | Fold Change in GI50 Compared to Parental Cell Line [17] [fold] | Fold Change in GI50 Compared to Parental Cell Line [18] [fold] | Fold Change in GI50 Compared to Parental Cell Line [19] [fold] | Fold Change in GI50 Compared to Parental Cell Line [20] [fold] | other results
Cc1cc2c(C(N)=O)cccc2n1-c1nc2c(c(NCc3ccccc3)n1)COCC2 [Compound 4, 1-[4-(benzylamino)-5H,7H,8H-pyrano[4,3-d]pyrimidin-2-yl]-2-methyl-1H-indole-4-carboxamide] | 11.6 | 8.7 | 11.8 | 17.0 | 5.4 | 39.8 | 50.3 | 2.2 | 1.6 | 6.1 | 3.2 | 4.4 | 1.8 | 3.8 | 3.0 | 2.7 | 19.4 | 1.3 | 6.4 | 2.0 | Fold Change in GI50 Compared to Parental Cell Line [21]: 60.7 fold; Fold Change in GI50 Compared to Parental Cell Line [22]: 6.6 fold; Fold Change in GI50 Compared to Parental Cell Line [23]: 2.4 fold
CC(C)C[C@H](NC(=O)[C@H](Cc1ccccc1)NC(=O)c1cnccn1)B(O)O [Compound 1, [(1R)-3-methyl-1-[(2S)-3-phenyl-2-(pyrazin-2-ylformamido)propanamido]butyl]boronic acid, reference compound] | 0.9 | 1.0 | 1.1 | 1.0 | 1.0 | 1.1 | 1.1 | 0.9 | 1.3 | 1.0 | 0.8 | 0.8 | 1.3 | 0.9 | 1.2 | 1.2 | 0.9 | 0.8 | 0.8 | 0.9 | Fold Change in GI50 Compared to Parental Cell Line [21]: 1.0 fold; Fold Change in GI50 Compared to Parental Cell Line [22]: 1.5 fold; Fold Change in GI50 Compared to Parental Cell Line [23]: 0.8 fold
